Reference: US20260272934A1 (The United States of America, as represented by the …, priority 2023, published 2026)

Key:
[1] = Conversion of Allopole to Allopole-A under various buffer conditions (mass spectroscopy); type: physicochemical; details: RT, 1 h; for Compound detected / Compound detected, % of total / Compound detected, pk area: 100 uM Allopole incubated
Description: This Example illustrates the conversion of Allopole to Allopole-A under various buffer conditions, RT, 1 h (JE), as set forth in Table 4
Samples were prepared by incubating Allopole in the indicated buffer conditions without or with 5 mM GSH for 1 h, at RT.

5-HT1A = 5-HT1A (Homo sapiens, UniProt P08908); assay: Off-target primary and secondary screen; type: binding; details: 10 mM sample
5-HT1B = 5-HT1B (Homo sapiens, UniProt P28222); assay: Off-target primary and secondary screen; type: binding; details: 10 mM sample
Sequence of 5-HT1B (P28222 whole entry, species assumed): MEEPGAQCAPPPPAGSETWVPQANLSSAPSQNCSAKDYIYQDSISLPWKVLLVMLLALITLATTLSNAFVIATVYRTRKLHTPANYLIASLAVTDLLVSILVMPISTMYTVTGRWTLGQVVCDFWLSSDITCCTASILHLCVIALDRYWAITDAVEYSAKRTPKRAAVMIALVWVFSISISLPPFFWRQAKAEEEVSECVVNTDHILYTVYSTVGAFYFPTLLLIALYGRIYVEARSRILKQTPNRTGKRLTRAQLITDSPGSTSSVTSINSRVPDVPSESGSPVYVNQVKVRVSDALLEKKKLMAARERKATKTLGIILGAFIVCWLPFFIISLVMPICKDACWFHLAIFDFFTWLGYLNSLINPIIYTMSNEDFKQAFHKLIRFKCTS

5-HT1D = 5-HT1D (Homo sapiens, UniProt P28221); assay: Off-target primary and secondary screen; type: binding; details: 10 mM sample
5-HT1E = 5-HT1E (Homo sapiens, UniProt P28566); assay: Off-target primary and secondary screen; type: binding; details: 10 mM sample
5-HT2B = 5-HT2B (Homo sapiens, UniProt P41595); assay: Off-target primary and secondary screen; type: binding; details: 10 mM sample
Sequence of 5-HT2B (P41595 whole entry, species assumed): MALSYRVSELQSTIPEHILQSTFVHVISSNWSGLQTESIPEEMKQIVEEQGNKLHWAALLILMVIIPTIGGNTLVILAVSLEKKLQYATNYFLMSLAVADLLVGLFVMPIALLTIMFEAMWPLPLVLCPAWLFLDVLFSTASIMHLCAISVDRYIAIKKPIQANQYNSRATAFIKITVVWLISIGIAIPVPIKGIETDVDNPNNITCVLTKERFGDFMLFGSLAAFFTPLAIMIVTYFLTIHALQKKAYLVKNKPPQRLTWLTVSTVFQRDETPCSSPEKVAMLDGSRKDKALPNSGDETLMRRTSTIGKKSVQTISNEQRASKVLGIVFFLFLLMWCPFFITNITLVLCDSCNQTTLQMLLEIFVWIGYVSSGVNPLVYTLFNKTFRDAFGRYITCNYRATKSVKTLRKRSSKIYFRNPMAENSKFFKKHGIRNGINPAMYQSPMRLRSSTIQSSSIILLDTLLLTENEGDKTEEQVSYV

5-HT2C = target: T1, 5-HT2C (Homo sapiens, UniProt P28335); assay: Off-target primary and secondary screen; type: binding; details: for Primary screen AVE (% inhib) ± SD: 10 mM sample
T1 sequence (P28335 33-458): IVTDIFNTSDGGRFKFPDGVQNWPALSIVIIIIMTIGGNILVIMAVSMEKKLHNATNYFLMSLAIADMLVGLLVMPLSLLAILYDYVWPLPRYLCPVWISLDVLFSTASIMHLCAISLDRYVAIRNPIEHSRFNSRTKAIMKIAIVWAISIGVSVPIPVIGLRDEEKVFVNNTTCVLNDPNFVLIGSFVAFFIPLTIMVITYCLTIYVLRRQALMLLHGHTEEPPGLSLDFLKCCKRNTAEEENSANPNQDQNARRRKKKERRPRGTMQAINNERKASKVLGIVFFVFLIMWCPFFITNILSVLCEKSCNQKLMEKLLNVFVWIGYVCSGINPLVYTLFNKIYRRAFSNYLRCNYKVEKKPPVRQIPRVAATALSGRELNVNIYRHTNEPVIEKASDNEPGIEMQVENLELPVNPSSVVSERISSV

5-HT3 = 5-HT3 (Homo sapiens, UniProt P46098); assay: Off-target primary and secondary screen; type: binding; details: 10 mM sample
Sequence of 5-HT3 (P46098 24-478, species assumed): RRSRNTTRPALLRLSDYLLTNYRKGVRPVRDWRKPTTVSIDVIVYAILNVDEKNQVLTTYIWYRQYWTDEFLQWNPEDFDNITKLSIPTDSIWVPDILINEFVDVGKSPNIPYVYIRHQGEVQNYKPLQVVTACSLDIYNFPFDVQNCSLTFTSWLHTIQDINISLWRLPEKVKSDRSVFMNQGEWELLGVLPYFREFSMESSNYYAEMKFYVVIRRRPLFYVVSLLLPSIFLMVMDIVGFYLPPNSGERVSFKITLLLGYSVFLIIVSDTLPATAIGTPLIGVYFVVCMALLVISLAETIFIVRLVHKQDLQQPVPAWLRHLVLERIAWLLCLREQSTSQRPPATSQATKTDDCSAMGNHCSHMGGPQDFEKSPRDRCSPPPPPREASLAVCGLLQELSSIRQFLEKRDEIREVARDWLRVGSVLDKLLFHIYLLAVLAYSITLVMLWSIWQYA

5-HT5A = 5-HT5A (Homo sapiens, UniProt P47898); assay: Off-target primary and secondary screen; type: binding; details: 10 mM sample
Sequence of 5-HT5A (P47898 whole entry, species assumed): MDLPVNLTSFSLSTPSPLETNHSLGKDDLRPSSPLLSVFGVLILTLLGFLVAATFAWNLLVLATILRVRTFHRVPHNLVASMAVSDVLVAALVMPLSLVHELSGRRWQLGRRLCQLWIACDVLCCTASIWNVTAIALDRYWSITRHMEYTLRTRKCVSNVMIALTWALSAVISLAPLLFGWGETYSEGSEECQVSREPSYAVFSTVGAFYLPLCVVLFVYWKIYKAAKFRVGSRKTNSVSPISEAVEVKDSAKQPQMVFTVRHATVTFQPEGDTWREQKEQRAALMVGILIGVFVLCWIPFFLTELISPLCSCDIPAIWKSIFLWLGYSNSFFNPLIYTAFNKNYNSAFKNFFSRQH

5-HT6 = 5-HT6 (Homo sapiens, UniProt P50406); assay: Off-target primary and secondary screen; type: binding; details: 10 mM sample
5-HT7A = 5-HT7A (Homo sapiens, UniProt P34969); assay: Off-target primary and secondary screen; type: binding; details: 10 mM sample
Sequence of 5-HT7A (P34969 1-445 isoform P34969-2): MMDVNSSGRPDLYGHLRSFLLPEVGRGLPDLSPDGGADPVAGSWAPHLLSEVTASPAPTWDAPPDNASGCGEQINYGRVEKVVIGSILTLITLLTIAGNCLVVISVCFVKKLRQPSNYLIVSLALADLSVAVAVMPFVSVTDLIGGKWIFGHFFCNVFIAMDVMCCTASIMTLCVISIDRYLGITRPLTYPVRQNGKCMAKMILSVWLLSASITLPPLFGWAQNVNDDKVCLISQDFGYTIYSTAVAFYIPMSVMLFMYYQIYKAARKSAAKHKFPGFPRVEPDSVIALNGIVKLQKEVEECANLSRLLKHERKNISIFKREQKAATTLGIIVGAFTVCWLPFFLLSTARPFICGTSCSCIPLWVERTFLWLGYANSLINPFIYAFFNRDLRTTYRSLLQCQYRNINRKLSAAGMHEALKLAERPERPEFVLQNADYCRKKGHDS

Alpha1A = Alpha1A (Homo sapiens, UniProt P35348); assay: Off-target primary and secondary screen; type: binding; details: 10 mM sample
Aipha1D = Aipha1D (Homo sapiens, UniProt P25100); assay: Off-target primary and secondary screen; type: binding; details: 10 mM sample
Alpha2A = Alpha2A (Homo sapiens, UniProt P08913); assay: Off-target primary and secondary screen; type: binding; details: 10 mM sample
Alpha2B = Alpha2B (Homo sapiens, UniProt P18089); assay: Off-target primary and secondary screen; type: binding; details: 10 mM sample
Alpha2C = Alpha2C (Homo sapiens, UniProt P18825); assay: Off-target primary and secondary screen; type: binding; details: 10 mM sample
Sequence of Alpha2C (P18825 whole entry): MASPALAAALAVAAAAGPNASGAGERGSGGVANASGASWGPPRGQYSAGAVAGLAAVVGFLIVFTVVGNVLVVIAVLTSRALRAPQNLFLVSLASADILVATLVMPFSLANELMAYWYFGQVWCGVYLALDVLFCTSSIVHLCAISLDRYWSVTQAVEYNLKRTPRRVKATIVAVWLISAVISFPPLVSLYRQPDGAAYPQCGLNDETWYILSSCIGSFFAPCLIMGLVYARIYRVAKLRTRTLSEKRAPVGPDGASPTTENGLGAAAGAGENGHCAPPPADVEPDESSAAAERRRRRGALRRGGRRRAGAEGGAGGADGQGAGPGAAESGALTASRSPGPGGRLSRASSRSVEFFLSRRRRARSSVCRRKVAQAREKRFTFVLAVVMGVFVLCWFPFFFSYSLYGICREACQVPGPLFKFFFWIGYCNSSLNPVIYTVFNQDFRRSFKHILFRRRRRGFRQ

Beta1 = Beta1 (Homo sapiens, UniProt P08588); assay: Off-target primary and secondary screen; type: binding; details: 10 mM sample
Sequence of Beta1 (P08588 whole entry): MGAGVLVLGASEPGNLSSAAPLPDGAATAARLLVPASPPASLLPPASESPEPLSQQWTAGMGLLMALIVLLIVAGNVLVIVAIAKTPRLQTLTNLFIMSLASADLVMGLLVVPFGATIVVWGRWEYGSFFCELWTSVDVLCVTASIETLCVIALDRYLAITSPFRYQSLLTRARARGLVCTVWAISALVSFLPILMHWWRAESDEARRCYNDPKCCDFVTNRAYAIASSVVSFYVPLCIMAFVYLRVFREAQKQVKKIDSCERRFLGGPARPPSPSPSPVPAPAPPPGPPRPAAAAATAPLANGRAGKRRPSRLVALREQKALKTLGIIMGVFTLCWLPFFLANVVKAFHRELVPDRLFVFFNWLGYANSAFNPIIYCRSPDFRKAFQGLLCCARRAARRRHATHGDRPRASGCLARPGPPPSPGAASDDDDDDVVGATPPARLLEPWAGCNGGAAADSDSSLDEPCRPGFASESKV

Beta3 = Beta3 (Homo sapiens, UniProt P13945); assay: Off-target primary and secondary screen; type: binding; details: 10 mM sample
D1 = D1 (Homo sapiens, UniProt P21728); assay: Off-target primary and secondary screen; type: binding; details: 10 mM sample
D2 = D2 (Homo sapiens, UniProt P14416); assay: Off-target primary and secondary screen; type: binding; details: 10 mM sample
D5 = D5 (Homo sapiens, UniProt P21918); assay: Off-target primary and secondary screen; type: binding; details: 10 mM sample
DAT = DAT (Homo sapiens, UniProt Q01959); assay: Off-target primary and secondary screen; type: binding; details: 10 mM sample
DOR = DOR (Homo sapiens, UniProt P41143); assay: Off-target primary and secondary screen; type: binding; details: 10 mM sample
GABAA = assay: Off-target primary and secondary screen; type: binding; details: for Primary screen AVE (% inhib) ± SD: 10 mM sample
H1 = H1 (Homo sapiens, UniProt P35367); assay: Off-target primary and secondary screen; type: binding; details: 10 mM sample
Sequence of H1 (P35367 whole entry): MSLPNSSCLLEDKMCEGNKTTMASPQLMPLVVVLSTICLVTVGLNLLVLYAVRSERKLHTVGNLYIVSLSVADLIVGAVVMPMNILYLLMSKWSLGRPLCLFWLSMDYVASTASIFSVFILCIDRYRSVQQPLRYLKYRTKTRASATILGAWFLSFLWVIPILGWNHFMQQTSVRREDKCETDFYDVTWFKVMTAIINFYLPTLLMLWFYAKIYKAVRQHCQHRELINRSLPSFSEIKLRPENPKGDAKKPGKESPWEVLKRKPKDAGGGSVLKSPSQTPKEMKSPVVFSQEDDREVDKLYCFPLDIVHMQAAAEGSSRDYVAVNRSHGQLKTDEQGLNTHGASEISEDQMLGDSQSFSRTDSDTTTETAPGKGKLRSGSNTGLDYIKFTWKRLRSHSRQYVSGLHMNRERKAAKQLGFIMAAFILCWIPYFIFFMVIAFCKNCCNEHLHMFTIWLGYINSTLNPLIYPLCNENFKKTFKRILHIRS

M1 = M1 (Homo sapiens, UniProt P11229); assay: Off-target primary and secondary screen; type: binding; details: 10 mM sample
M2 = M2 (Homo sapiens, UniProt P08172); assay: Off-target primary and secondary screen; type: binding; details: 10 mM sample
Sequence of M2 (P08172 whole entry): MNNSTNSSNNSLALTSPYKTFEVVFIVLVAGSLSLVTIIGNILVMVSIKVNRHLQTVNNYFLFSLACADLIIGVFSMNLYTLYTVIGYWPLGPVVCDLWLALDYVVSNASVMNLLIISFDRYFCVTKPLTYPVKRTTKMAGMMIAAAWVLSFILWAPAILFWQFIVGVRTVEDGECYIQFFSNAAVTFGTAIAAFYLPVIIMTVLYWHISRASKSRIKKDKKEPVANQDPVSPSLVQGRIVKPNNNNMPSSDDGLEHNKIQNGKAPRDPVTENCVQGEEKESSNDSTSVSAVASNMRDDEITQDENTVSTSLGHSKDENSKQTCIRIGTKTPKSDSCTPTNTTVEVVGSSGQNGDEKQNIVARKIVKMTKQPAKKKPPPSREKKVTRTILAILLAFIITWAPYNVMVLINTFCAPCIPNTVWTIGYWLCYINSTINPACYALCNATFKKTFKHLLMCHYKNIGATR

M5 = M5 (Homo sapiens, UniProt P08912); assay: Off-target primary and secondary screen; type: binding; details: 10 mM sample
MOR = MOR (Homo sapiens, UniProt P35372); assay: Off-target primary and secondary screen; type: binding; details: 10 mM sample
Sequence of MOR (P35372 whole entry): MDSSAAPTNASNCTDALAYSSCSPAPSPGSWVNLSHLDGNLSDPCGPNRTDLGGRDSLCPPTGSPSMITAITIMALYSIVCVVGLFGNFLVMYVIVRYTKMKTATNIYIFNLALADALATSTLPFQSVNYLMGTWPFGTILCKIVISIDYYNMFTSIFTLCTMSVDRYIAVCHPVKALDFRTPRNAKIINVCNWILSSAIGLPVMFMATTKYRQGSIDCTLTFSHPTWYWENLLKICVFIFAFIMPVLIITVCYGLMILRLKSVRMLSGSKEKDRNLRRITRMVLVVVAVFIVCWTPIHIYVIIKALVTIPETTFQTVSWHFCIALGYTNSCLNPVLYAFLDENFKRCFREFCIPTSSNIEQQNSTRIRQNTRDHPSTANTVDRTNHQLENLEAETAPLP

Sigma 1 = Sigma 1 (Homo sapiens, UniProt Q99720); assay: Off-target primary and secondary screen; type: binding; details: 10 mM sample
Sequence of Sigma 1 (Q99720 whole entry): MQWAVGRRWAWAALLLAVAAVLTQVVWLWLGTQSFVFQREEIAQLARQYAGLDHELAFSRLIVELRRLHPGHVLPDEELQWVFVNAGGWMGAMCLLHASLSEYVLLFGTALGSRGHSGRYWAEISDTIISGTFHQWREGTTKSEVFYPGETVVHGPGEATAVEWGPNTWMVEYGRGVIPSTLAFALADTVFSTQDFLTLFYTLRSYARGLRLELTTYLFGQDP

Sigma 2 = Sigma 2 (Homo sapiens, UniProt Q5BJF2); assay: Off-target primary and secondary screen; type: binding; details: 10 mM sample
Sequence of Sigma 2 (Q5BJF2 whole entry): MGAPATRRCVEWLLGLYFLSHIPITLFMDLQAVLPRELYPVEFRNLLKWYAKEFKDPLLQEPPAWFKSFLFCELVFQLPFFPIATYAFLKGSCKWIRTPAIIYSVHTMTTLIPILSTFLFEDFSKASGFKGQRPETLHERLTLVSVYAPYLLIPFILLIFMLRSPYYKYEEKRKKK

[2] = buffer 2 (1x PBS pH = 7.4), no GSH
[3] = buffer 3 (20 mM HEPES pH = 7.0), no GSH

## O=c1c2sc(Cl)cc2n2c(=S)[nH]nc2n1CC1CC1 [Compound 19, 7-Chloro-4-(cyclopropylmethyl)-1-thioxo-2,4-dihydrothieno[2,3-e][1,2,4]triazolo[4,3-a]pyrimidin-5 (1H)-one]
[1]; buffer 1 + 5 mM GSH
  Compound detected: 95.4 µmol/L
  Compound detected, % of total: 95.4 % of total
  Compound detected, pk area: 1.38E+09
[1]; [2]
  Compound detected: 0.8 µmol/L
  Compound detected, % of total: 0.8 % of total
  Compound detected, pk area: 4.90E+06
[1]; buffer 2 + 5 mM GSH
  Compound detected: 77.9 µmol/L
  Compound detected, % of total: 77.9 % of total
  Compound detected, pk area: 5.81E+08
[1]; [3]
  Compound detected: 1.9 µmol/L
  Compound detected, % of total: 1.9 % of total
  Compound detected, pk area: 1.56E+06
[1]; buffer 3 + 5 mM GSN
  Compound detected: 66.9 µmol/L
  Compound detected, % of total: 66.9 % of total
  Compound detected, pk area: 1.89E+08
[1]; buffer 3 [sic], no GSH
  Compound detected: 1.3 µmol/L
  Compound detected, % of total: 1.3 % of total
  Compound detected, pk area: 9.61E+08
5-HT1A
  Primary screen AVE (% inhib) ± SD: -20.0 ± 27.4 % inhib
5-HT1B
  Primary screen AVE (% inhib) ± SD: 17.7 ± 42.2 % inhib
5-HT1D
  Primary screen AVE (% inhib) ± SD: 22.5 ± 25.6 % inhib
5-HT1E
  Primary screen AVE (% inhib) ± SD: 31.3 ± 7.6 % inhib
5-HT2B
  Primary screen AVE (% inhib) ± SD: -17.7 ± 11.2 % inhib
5-HT2C
  Primary screen AVE (% inhib) ± SD: -18.3 ± 22.0 % inhib
5-HT3
  Primary screen AVE (% inhib) ± SD: -3.8 ± 3.1 % inhib
5-HT5A
  Primary screen AVE (% inhib) ± SD: -1.4 ± 14.4 % inhib
5-HT6
  Primary screen AVE (% inhib) ± SD: -5.0 ± 11.7 % inhib
5-HT7A
  Primary screen AVE (% inhib) ± SD: -88.1 ± 20.8 % inhib
Alpha1A
  Primary screen AVE (% inhib) ± SD: -9.4 ± 18.0 % inhib
Aipha1D
  Primary screen AVE (% inhib) ± SD: -9.9 ± 23.4 % inhib
Alpha2A
  Primary screen AVE (% inhib) ± SD: -6.3 ± 7.9 % inhib
Alpha2B
  Primary screen AVE (% inhib) ± SD: -6.4 ± 7.1 % inhib
Alpha2C
  Primary screen AVE (% inhib) ± SD: 10.6 ± 4.2 % inhib
Beta1
  Primary screen AVE (% inhib) ± SD: -6.2 ± 19.4 % inhib
Beta3
  Primary screen AVE (% inhib) ± SD: 17.9 ± 8.6 % inhib
D1
  Primary screen AVE (% inhib) ± SD: -17.2 ± 25.0 % inhib
D2
  Primary screen AVE (% inhib) ± SD: -27.4 ± 13.1 % inhib
D5
  Primary screen AVE (% inhib) ± SD: 28.7 ± 10.7 % inhib
DAT
  Primary screen AVE (% inhib) ± SD: 43.9 ± 13.0 % inhib
DOR
  Primary screen AVE (% inhib) ± SD: -13.5 ± 6.8 % inhib
GABAA
  Ki: > 10 µM
  Primary screen AVE (% inhib) ± SD: 35.7 ± 11.1 % inhib
H1
  Primary screen AVE (% inhib) ± SD: 11.5 ± 2.8 % inhib
M1
  Primary screen AVE (% inhib) ± SD: 39.3 ± 10.7 % inhib
M2
  Primary screen AVE (% inhib) ± SD: 21.1 ± 19.7 % inhib
M5
  Primary screen AVE (% inhib) ± SD: 130.2 ± 3.0 % inhib
MOR
  Primary screen AVE (% inhib) ± SD: 30.8 ± 47.5 % inhib
Sigma 1
  Primary screen AVE (% inhib) ± SD: 2.0 ± 21.4 % inhib
Sigma 2
  Primary screen AVE (% inhib) ± SD: 40.6 ± 9.5 % inhib

## Cn1cnc([N+](=O)[O-])c1Sc1nnc2n(CC3CC3)c(=O)c3sc(Cl)cc3n12 [Compound 20, 7-Chloro-4-(cyclopropylmethyl)-1-((1-methyl-4-nitro-1H-imidazol-5-yl)thio) thieno[2,3-e][1,2,4]triazolo[4,3-a]pyrimidin-5 (4H)-one]
[1]; buffer 1 + 5 mM GSH
  Compound detected: 0.1 µmol/L
  Compound detected, % of total: 0.1 % of total
  Compound detected, pk area: 8.76E+08
[1]; [2]
  Compound detected: 97.6 µmol/L
  Compound detected, % of total: 97.6 % of total
  Compound detected, pk area: 6.28E+08
[1]; buffer 2 + 5 mM GSH
  Compound detected: 0.0 µmol/L
  Compound detected, % of total: 0.0 % of total
  Compound detected, pk area: 2.41E+03
[1]; [3]
  Compound detected: 93.1 µmol/L
  Compound detected, % of total: 93.1 % of total
[1]; buffer 3 + 5 mM GSN
  Compound detected: 0.0 µmol/L
  Compound detected, % of total: 0.0 % of total
  Compound detected, pk area: 93500
[1]; buffer 3 [sic], no GSH
  Compound detected: 97.9 µmol/L
  Compound detected, % of total: 97.9 % of total
  Compound detected, pk area: 7.45E+08
[1]; in the absence of GSH
  stability in buffer: remains stable
[1]; with 5 mM GSH
  conversion of the prodrug to the active Allopole-A form: rapid conversion
5-HT1A
  Primary screen AVE (% inhib) ± SD: -12.8 ± 19.7 % inhib
5-HT1B
  Primary screen AVE (% inhib) ± SD: 60.8 ± 40.9 % inhib
5-HT1D
  Primary screen AVE (% inhib) ± SD: 32.8 ± 27.1 % inhib
5-HT1E
  Primary screen AVE (% inhib) ± SD: 22.2 ± 10.5 % inhib
5-HT2B
  Primary screen AVE (% inhib) ± SD: -0.5 ± 5.0 % inhib
5-HT2C
  Ki: 1300 nM
  Primary screen AVE (% inhib) ± SD: 59.5 ± 3.0 % inhib
5-HT3
  Primary screen AVE (% inhib) ± SD: -0.8 ± 4.6 % inhib
5-HT5A
  Primary screen AVE (% inhib) ± SD: 24.5 ± 9.3 % inhib
5-HT6
  Primary screen AVE (% inhib) ± SD: 21.9 ± 15.6 % inhib
5-HT7A
  Primary screen AVE (% inhib) ± SD: 14.9 ± 9.9 % inhib
Alpha1A
  Primary screen AVE (% inhib) ± SD: 40.6 ± 10.5 % inhib
Aipha1D
  Primary screen AVE (% inhib) ± SD: -15.1 ± 19.8 % inhib
Alpha2A
  Primary screen AVE (% inhib) ± SD: 9.4 ± 4.6 % inhib
Alpha2B
  Primary screen AVE (% inhib) ± SD: 8.3 ± 16.4 % inhib
Alpha2C
  Primary screen AVE (% inhib) ± SD: 6.4 ± 7.5 % inhib
Beta1
  Primary screen AVE (% inhib) ± SD: 67.3 ± 49.1 % inhib
Beta3
  Primary screen AVE (% inhib) ± SD: 30.8 ± 22.8 % inhib
D1
  Primary screen AVE (% inhib) ± SD: 21.5 ± 6.8 % inhib
D2
  Primary screen AVE (% inhib) ± SD: 3.6 ± 6.6 % inhib
D5
  Primary screen AVE (% inhib) ± SD: 20.9 ± 9.5 % inhib
DAT
  Primary screen AVE (% inhib) ± SD: 54.0 ± 10.7 % inhib
DOR
  Primary screen AVE (% inhib) ± SD: -1.0 ± 4.8 % inhib
GABAA
  Ki: > 10 µM
  Primary screen AVE (% inhib) ± SD: 33.3 ± 4.2 % inhib
H1
  Primary screen AVE (% inhib) ± SD: 35.8 ± 11.9 % inhib
M1
  Primary screen AVE (% inhib) ± SD: 50.7 ± 26.1 % inhib
M2
  Primary screen AVE (% inhib) ± SD: 9.3 ± 19.3 % inhib
M5
  Primary screen AVE (% inhib) ± SD: 95.0 ± 7.4 % inhib
MOR
  Primary screen AVE (% inhib) ± SD: 40.6 ± 51.0 % inhib
Sigma 1
  Primary screen AVE (% inhib) ± SD: 41.8 ± 11.9 % inhib
Sigma 2
  Primary screen AVE (% inhib) ± SD: 40.7 ± 5.8 % inhib
